Data from PubChem BioAssay AID2060886 (Molecular Pharmacology Branch, DTP, NCI, 2025).

Tested on: 653999-131-R-J2-PDC complex spheroids, growth inhibition
Test: Anticancer human tumor 653999-131-R-J2-PDC patient-derived lung adenocarcinoma cell line growth inhibition [RAS]
Conditions: for IC50: curve of first compound; for viability, T/C: stronger effect = lower value; active = viability on the fitted dose curve at most 10% of control; inactive = the rest
Outline: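 Agents were tested in combination matrices in half-log decrements from a top concentration at or near clinical Cmax (10 microM if undetermined). Targets were multi-cell spheroids of tumour lines plus HUVEC and MSC stromal cells.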

[1] = second compound 0.0316 µM, first compound 0.0316 µM
[2] = second compound 0.0316 µM, first compound 0.1 µM
[3] = second compound 0.0316 µM, first compound 0.316 µM
[4] = second compound 0.0316 µM, first compound 1 µM
[5] = second compound 0.0316 µM, first compound 3.16 µM
[6] = second compound 0.0316 µM, first compound 10 µM
[7] = second compound 0.1 µM, first compound 0.0316 µM
[8] = second compound 0.1 µM, first compound 0.1 µM
[9] = second compound 0.1 µM, first compound 0.316 µM
[10] = second compound 0.1 µM, first compound 1 µM
[11] = second compound 0.1 µM, first compound 3.16 µM
[12] = second compound 0.1 µM, first compound 10 µM
[13] = second compound 0.316 µM, first compound 0.0316 µM
[14] = second compound 0.316 µM, first compound 0.1 µM
[15] = second compound 0.316 µM, first compound 0.316 µM
[16] = second compound 0.316 µM, first compound 1 µM
[17] = second compound 0.316 µM, first compound 3.16 µM
[18] = second compound 0.316 µM, first compound 10 µM
[19] = second compound 1 µM, first compound 0.0316 µM
[20] = second compound 1 µM, first compound 0.1 µM
[21] = second compound 1 µM, first compound 0.316 µM
[22] = second compound 1 µM, first compound 1 µM
[23] = second compound 1 µM, first compound 3.16 µM
[24] = second compound 1 µM, first compound 10 µM
[25] = second compound 3.16 µM, first compound 0.0316 µM
[26] = second compound 3.16 µM, first compound 0.1 µM
[27] = second compound 3.16 µM, first compound 0.316 µM
[28] = second compound 3.16 µM, first compound 1 µM
[29] = second compound 3.16 µM, first compound 3.16 µM
[30] = second compound 3.16 µM, first compound 10 µM
[31] = second compound 10 µM, first compound 0.0316 µM
[32] = second compound 10 µM, first compound 0.1 µM
[33] = second compound 10 µM, first compound 0.316 µM
[34] = second compound 10 µM, first compound 1 µM
[35] = second compound 10 µM, first compound 3.16 µM
[36] = second compound 10 µM, first compound 10 µM
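Note: spheroids exposed to the agents for seven days before the readout.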

CC(=O)OC12COC1CC(O)C1(C)C(=O)C(O)C3=C(C)C(OC(=O)C(O)C(NC(=O)OC(C)(C)C)c4ccccc4)CC(O)(C(OC(=O)c4ccccc4)C21)C3(C)C (stereo not drawn) + C=CC(=O)N1CCN(c2nc(OCC3CCCN3C)nc3c(F)c(-c4nc(N)cc(C)c4C(F)(F)F)c(Cl)cc23)C(C)C1
> 10000 nM: IC50 (second compound 0.00316 µM) | IC50 (second compound 0.01 µM) | IC50 (second compound 0.0316 µM) | IC50 (second compound 0.1 µM) | IC50 (second compound 0.316 µM) | IC50 (second compound 1 µM)
inactive: viability, T/C (second compound 0.00316 µM, first compound 0.0316 µM) 56.6% | viability, T/C (second compound 0.00316 µM, first compound 0.1 µM) 48.1% | viability, T/C (second compound 0.00316 µM, first compound 0.316 µM) 56% | viability, T/C (second compound 0.00316 µM, first compound 1 µM) 58.8% | viability, T/C (second compound 0.00316 µM, first compound 3.16 µM) 61.7% | viability, T/C (second compound 0.00316 µM, first compound 10 µM) 68% | viability, T/C (second compound 0.01 µM, first compound 0.0316 µM) 63.7% | viability, T/C (second compound 0.01 µM, first compound 0.1 µM) 54.2% | viability, T/C (second compound 0.01 µM, first compound 0.316 µM) 57.9% | viability, T/C (second compound 0.01 µM, first compound 1 µM) 67.5% | viability, T/C (second compound 0.01 µM, first compound 3.16 µM) 62.6% | viability, T/C (second compound 0.01 µM, first compound 10 µM) 76% | viability, T/C [1] 58.4% | viability, T/C [2] 59.2% | viability, T/C [3] 49.2% | viability, T/C [4] 58.7% | viability, T/C [5] 73.4% | viability, T/C [6] 66.5% | viability, T/C [7] 59.5% | viability, T/C [8] 57.2% | viability, T/C [9] 53.7% | viability, T/C [10] 56.2% | viability, T/C [11] 72.5% | viability, T/C [12] 93.3% | viability, T/C [13] 55.7% | viability, T/C [14] 61.3% | viability, T/C [15] 54.5% | viability, T/C [16] 63.5% | viability, T/C [17] 79.8% | viability, T/C [18] 84.1% | viability, T/C [19] 53% | viability, T/C [20] 57.5% | viability, T/C [21] 62.3% | viability, T/C [22] 60.3% | viability, T/C [23] 62.9% | viability, T/C [24] 82.4%

CCc1c2c(nc3ccc(O)cc13)-c1cc3c(c(=O)n1C2)COC(=O)[C@]3(O)CC + C=CC(=O)N1CCN(c2nc(OCC3CCCN3C)nc3c(F)c(-c4nc(N)cc(C)c4C(F)(F)F)c(Cl)cc23)C(C)C1
5.92 nM: IC50 (second compound 0.1 µM)
inactive: viability, T/C (second compound 0.00316 µM, first compound 0.000949 µM) 80.2% | viability, T/C (second compound 0.00316 µM, first compound 0.003 µM) 58.5% | viability, T/C (second compound 0.00316 µM, first compound 0.00949 µM) 53.5% | viability, T/C (second compound 0.00316 µM, first compound 0.03 µM) 34.3% | viability, T/C (second compound 0.00316 µM, first compound 0.0949 µM) 20.8% | viability, T/C (second compound 0.00316 µM, first compound 0.3 µM) 10.2% | viability, T/C (second compound 0.01 µM, first compound 0.000949 µM) 88.7% | viability, T/C (second compound 0.01 µM, first compound 0.003 µM) 61.9% | viability, T/C (second compound 0.01 µM, first compound 0.00949 µM) 44.2% | viability, T/C (second compound 0.01 µM, first compound 0.03 µM) 29% | viability, T/C (second compound 0.01 µM, first compound 0.0949 µM) 21.5% | viability, T/C (second compound 0.01 µM, first compound 0.3 µM) 11.3% | viability, T/C (second compound 0.0316 µM, first compound 0.000949 µM) 90.9% | viability, T/C (second compound 0.0316 µM, first compound 0.003 µM) 60.8% | viability, T/C (second compound 0.0316 µM, first compound 0.00949 µM) 43.8% | viability, T/C (second compound 0.0316 µM, first compound 0.03 µM) 30.4% | viability, T/C (second compound 0.0316 µM, first compound 0.0949 µM) 20.6% | viability, T/C (second compound 0.0316 µM, first compound 0.3 µM) 11.6% | viability, T/C (second compound 0.1 µM, first compound 0.000949 µM) 85.8% | viability, T/C (second compound 0.1 µM, first compound 0.003 µM) 58.3% | viability, T/C (second compound 0.1 µM, first compound 0.00949 µM) 43.1% | viability, T/C (second compound 0.1 µM, first compound 0.03 µM) 30.2% | viability, T/C (second compound 0.1 µM, first compound 0.0949 µM) 23.7% | viability, T/C (second compound 0.1 µM, first compound 0.3 µM) 12.1% | viability, T/C (second compound 0.316 µM, first compound 0.000949 µM) 83.9% | viability, T/C (second compound 0.316 µM, first compound 0.003 µM) 59.7% | viability, T/C (second compound 0.316 µM, first compound 0.00949 µM) 42.5% | viability, T/C (second compound 0.316 µM, first compound 0.03 µM) 29.5% | viability, T/C (second compound 0.316 µM, first compound 0.0949 µM) 23% | viability, T/C (second compound 0.316 µM, first compound 0.3 µM) 11.9% | viability, T/C (second compound 1 µM, first compound 0.000949 µM) 84.5% | viability, T/C (second compound 1 µM, first compound 0.003 µM) 64.2% | viability, T/C (second compound 1 µM, first compound 0.00949 µM) 50.7% | viability, T/C (second compound 1 µM, first compound 0.03 µM) 31.2% | viability, T/C (second compound 1 µM, first compound 0.0949 µM) 25.3% | viability, T/C (second compound 1 µM, first compound 0.3 µM) 14.5%
6.41 nM: IC50 (second compound 0.0316 µM)
5.94 nM: IC50 (second compound 0.316 µM)
8.46 nM: IC50 (second compound 1 µM)
8.57 nM: IC50 (second compound 0.00316 µM)
6.53 nM: IC50 (second compound 0.01 µM)

CC(=O)OC12COC1CC(O)C1(C)C(=O)C(O)C3=C(C)C(OC(=O)C(O)C(NC(=O)OC(C)(C)C)c4ccccc4)CC(O)(C(OC(=O)c4ccccc4)C21)C3(C)C (stereo not drawn) + C#Cc1c(F)ccc2cc(O)cc(-c3ncc4c(N5CC6CCC(C5)N6)nc(OCC56CCCN5CC(F)C6)nc4c3F)c12
< 31.6 nM: IC50 (second compound 0.1 µM) | IC50 (second compound 0.316 µM) | IC50 (second compound 1 µM) | IC50 (second compound 3.16 µM) | IC50 (second compound 10 µM)
inactive: viability, T/C [1] 51% | viability, T/C [2] 58% | viability, T/C [3] 47.7% | viability, T/C [4] 65.3% | viability, T/C [5] 71.5% | viability, T/C [6] 59.4% | viability, T/C [7] 50% | viability, T/C [8] 47% | viability, T/C [9] 50.4% | viability, T/C [10] 55.7% | viability, T/C [11] 57% | viability, T/C [12] 55.5% | viability, T/C [13] 43.4% | viability, T/C [14] 41.3% | viability, T/C [15] 42.5% | viability, T/C [16] 50.1% | viability, T/C [17] 47.4% | viability, T/C [18] 42.6% | viability, T/C [19] 25.7% | viability, T/C [20] 31.1% | viability, T/C [21] 32.2% | viability, T/C [22] 31.9% | viability, T/C [23] 28.8% | viability, T/C [24] 31% | viability, T/C [25] 19.6% | viability, T/C [26] 19.2% | viability, T/C [27] 15.8% | viability, T/C [28] 16.2% | viability, T/C [29] 24.1% | viability, T/C [30] 18.5% | viability, T/C [31] 12.6% | viability, T/C [32] 11.7% | viability, T/C [33] 12.4% | viability, T/C [34] 13.5% | viability, T/C [35] 17.4% | viability, T/C [36] 13.3%
31.6 nM: IC50 (second compound 0.0316 µM)

C[C@@H](NC(=O)c1ncnc(N)c1Cl)c1ncc(C(=O)Nc2cc(C(F)(F)F)c(Cl)cn2)s1 + C#Cc1c(F)ccc2cc(O)cc(-c3ncc4c(N5CC6CCC(C5)N6)nc(OCC56CCCN5CC(F)C6)nc4c3F)c12
inactive: viability, T/C [1] 102% | viability, T/C [2] 109% | viability, T/C [3] 102% | viability, T/C [4] 100% | viability, T/C [5] 100% | viability, T/C [6] 73.5% | viability, T/C [7] 91% | viability, T/C [8] 91.6% | viability, T/C [9] 90% | viability, T/C [10] 78.3% | viability, T/C [11] 71% | viability, T/C [12] 77.2% | viability, T/C [13] 77.2% | viability, T/C [14] 75% | viability, T/C [15] 87.8% | viability, T/C [16] 75% | viability, T/C [17] 88.3% | viability, T/C [18] 69.1% | viability, T/C [19] 44.5% | viability, T/C [20] 68.3% | viability, T/C [21] 72.5% | viability, T/C [22] 44.6% | viability, T/C [23] 60.1% | viability, T/C [24] 54.7% | viability, T/C [25] 40.3% | viability, T/C [26] 39.7% | viability, T/C [27] 37% | viability, T/C [28] 44.9% | viability, T/C [29] 51.5% | viability, T/C [30] 41.8% | viability, T/C [31] 22% | viability, T/C [32] 21.2% | viability, T/C [33] 49.3% | viability, T/C [34] 45.9% | viability, T/C [35] 30.5% | viability, T/C [36] 22%
> 10000 nM: IC50 (second compound 0.0316 µM) | IC50 (second compound 0.1 µM) | IC50 (second compound 0.316 µM) | IC50 (second compound 1 µM)
< 31.6 nM: IC50 (second compound 3.16 µM) | IC50 (second compound 10 µM)
